Reference: patent US20060063753A1 (priority 2002, published 2006)

Legend:
opiate receptors = details: cited from earlier work
[1] = tested on: emesis (retching and vomiting); assay: emesis caused by opioid (morphine) and other proemetic agents (cisplatin) in ferrets; type: in vivo; details: i.p. pre-dosing, morphine 0.125 mg/kg s.c. or cisplatin 5 mg/kg i.p.
Description: Male ferrets (0.9- 1.7 kg) obtained from Leeds University were housed in pairs at 22±1° C. and had free access to food (SDS Diet ‘C’ (E), Special Diet Services, UK) and water. They were housed under artificial lighting with lights on between 07:00 and 21:00 hours. For experimental use, animals were removed from their holding cages and placed individually into observation cages. The animals were allowed free access to water and food. The animals were divided into separate groups of 4 animals per group. Animals were frequently observed throughout the experiments by a trained technician to ensure that the animals remained in good health. In addition, animal behaviour was video recorded for subsequent analysis of emesis (see Rudd et al., 1994). Emesis was characterized by rhythmic abdominal contractions which were either associated with the oral expulsion of solid or liquid material from the gastrointestinal tract (i.e. vomiting) or not associated with the passage of material (i.e. retching movements). The number of highly distinctive abdominal contractions was counted. (+)-Nefopam was dissolved in saline and administered in a volume of 1 ml/kg. […] Observations were recorded over a 4 hr period post-morphine dosing and scored for incidences of retching and vomiting. […] Observations were recorded over the 72 hr period post-cisplatin dosing and scored for incidences of retching and vomiting.

dopamine uptake = details: order of potency (+)-nefopam > (±)-nefopam > (−)-nefopam; cited from earlier work
serotonin-uptake = details: order of potency (+)-nefopam > (±)-nefopam > (−)-nefopam; cited from earlier work
norepinephrine uptake = details: order of potency (+)-nefopam > (±)-nefopam > (−)-nefopam; cited from earlier work
[2] = order of potency (+)-nefopam > (±)-nefopam > (−)-nefopam; cited from earlier work

SMILES	antinociception in animal models of pain and in humans (opiate receptors; animal models of pain and humans)	blockade of antinociception by nalaxone (opiate receptors; nalaxone)	effect on emesis caused by opioid and other recognised proemetic agents [1]	dopamine uptake inhibitory properties, potency compared with (−)-nefopam (dopamine uptake)	serotonin-uptake inhibitory properties, potency compared with (−)-nefopam (serotonin-uptake)	norepinephrine uptake inhibitory properties, potency compared with (−)-nefopam (norepinephrine uptake)	analgesic properties, potency compared with (−)-nefopam [2]
CN1CCOC(c2ccccc2)c2ccccc2C1 (racemic) [nefopam]	induce antinociception	not blocked	able to prevent or diminish emesis				
CN1CCO[C@@H](c2ccccc2)c2ccccc2C1 [(+)-nefopam]				more potent	more potent	more potent	more potent
